In one assay the test system is Cavendish banana plants. Kind of assay: Field trial: banana plant growth and development after metam sodium soil injection at 30 cm and 60 cm. The format is in vivo, Musa (Cavendish banana). On the procedure: (§1) Metam Sodium Application. Metam sodium 510 SL (equivalent to 42% w/w) was applied to soil at the following doses: 0 liters per hectare (L/ha), 750 L/ha, 1500 L/ha, 2250 L/ha, 3000 L/ha.
(§2) Prior to injection, soil was prepared using a rototiller to break the soil structure from 0 cm to 80 cm deep, allowing for the smooth and even injection application by an injection machine. The soil was then leveled and made uniform, and the metam sodium was applied at two depths: 30 cm and 60 cm, using injection methods. The temperature was at a minimum of 10° C. and soil humidity was between 50 and 60% holding capacity, allowing the applied product to transform from metam sodium (liquid) to MITC (gas).
(§3) The application was made using an injection machine wherein the machine lowered shanks and began moving forward such that the shanks lowered to a depth of 60 cm and injectors applied the metam sodium into the soil. When the injection at 60 cm was complete, the process was repeated for the entire field at 30 cm. The treated soil in the field was then sealed using a packer roller (which was part of the injection machinery, located at the back end of the machine), after each application.
Plant Selection and Transplantation. Cavendish banana plants were used for this investigation. In order to avoid plants already contaminated by other soil, all plants were produced in vitro using art-recognized methods. Plants were transplanted into the field 14 days after the final soil reading was taken (21 days after treatment).
Data Gathering. Data were gathered at monthly intervals beginning three months after banana plants were transplanted. A total of three data collection sessions were conducted. Data including the number of leaves, plant height, and girth size were collected.

The subject of assay [1] is F. oxysporum f. sp. cubense. Kind of assay: Panama disease analysis of field soil samples after metam sodium injection (plating on Komada medium). The class given is in vivo, Fusarium oxysporum f. sp. cubense Tropical Race 4. The following applies: any of the treated groups; any day post application. The protocol: as §1, §2, §3
Soil Analysis. Soil samples were obtained at 20, 40, and 60 cm before application and every 24 hours beginning 48 hours after application, for seven days.
Plant Pathology Analysis. […]

Another assay has as its system Foc TR4 chlamydospores. Kind of assay: In vitro efficacy of metam sodium on Foc TR4 chlamydospores (colony growth on PDA plates). The format is cell-based, Fusarium oxysporum f. sp. cubense Tropical Race 4. On the procedure:
Foc TR4 chlamydospores were extracted from infested soil and incubated with a dilution series of metam sodium for 5 min and 60 min at room temperature. Thereafter, the samples were diluted 10× to get reduction of the treatment and sufficient dilution of chlamydospores to avoid lack of resolution when grown on plate. Aliquots of 100 μl were plated on PDA plates in duplicate and incubated for 3 days at 25° C. Plates were photographed and scored.

Where [2] appears, read: 750 L/ha, six months after treatment.
Where [3] appears, read: 1500 L/ha, six months after treatment.
[4] abbreviates: 2250 L/ha, six months after treatment.
Setting [5] is: 3000 L/ha, six months after treatment.

Each structure is given as a SMILES string.

For `CNC(=S)S` [metam sodium, sodium N-methyldithiocarbamate], the results for the “average girth size of banana plant, increase” value in the assay on Cavendish banana plants (750 L/ha) and with Cavendish banana plants (1500-3000 L/ha) were approximately 1 cm and 4-6 cm, respectively. Besides, the “average height of banana plant, increase” value is listed as approximately 5 cm in the assay with Cavendish banana plants (750 L/ha) and 20-23 cm in the assay with Cavendish banana plants (1500-3000 L/ha). For the same molecule, the “percent of plants at either shooting or bagging stage” value with Cavendish banana plants (setting [2]) is 11%; with Cavendish banana plants (setting [3]), 28%; with Cavendish banana plants (setting [4]) it was 27%; with Cavendish banana plants (setting [5]) it was 35%. The “percent of plants at shooting stage” value came out at 9% in the assay on Cavendish banana plants (setting [2]), 10% with Cavendish banana plants (setting [3]), 17% in the assay on Cavendish banana plants (setting [4]) and 22% with Cavendish banana plants (setting [5]). For the same molecule, in the assay on Cavendish banana plants (setting [2]), the “plants reaching bagging stage” value is given as “did not have a meaningful effect”. The “percent of plants at bagging stage” value in the assay with Cavendish banana plants (1500 to 3000 L/ha, six months after treatment) is listed as 11-19%. For the same molecule, in the assay with Cavendish banana plants (regardless of dose applied (750-3000 L/ha), vs 0 L/ha), the “average number of leaves, increase” value is “roughly 1.5 fold”. For the same molecule, the “soil contamination: Foc TR4 detection” value in assay [1] was “No Foc TR4 was detected”. In addition, in the assay with Foc TR4 chlamydospores (100× dilution, prolonged incubation (60 min vs 5 min)), the “reducing the number of surviving chlamydospores, measured as growing colonies” value was “more effective”. Moreover, the “efficacy on Foc TR4 colony growth” value with Foc TR4 chlamydospores (dilution of 10×, incubation time 5 minutes) was “effective”; in the assay with Foc TR4 chlamydospores (dilution of 100×, 5 and 60 minutes) it was “less effective”. In addition, the “reduction in viability of Foc TR4 chlamydospores” value with Foc TR4 chlamydospores (first test, dilutions from 1000 up to 10×10^6-fold, 60 min) is recorded as “No significant reduction in viability”. In addition, in the assay with Foc TR4 chlamydospores (in vitro conditions, dependent on high concentrations), the “efficacy against Foc TR4 chlamydospores” value is “effective against Foc TR4 chlamydospores”. Moreover, in the assay with Foc TR4 chlamydospores (second test, 10× and 100× dilutions), the “efficacy on chlamydospore survival” value is recorded as “(partially) effective”. In the assay on Foc TR4 chlamydospores (second test, dilutions of 1000× and more), the “number of chlamydospores that survived” value is on record as “did not affect the number of chlamydospores that survived”.
